{"source": "patent US5696229A", "about": "“Polypeptide with laminin cell adhesion and morphogenesis activity” (The University of Virginia Patent Foundation, priority 1995, dated 1997)", "key": {"type II alveolar cells [1]": {"tested_on": "type II alveolar cells", "format": "cell-based, rat", "conditions": "for Area: Table II, laminin A chain synthetic peptide preincubated with cells before plating on BMS, None = 108 ± 23; for Inhibition of alveolar formation by soluble laminin fragment or peptide: preincubated with cells prior to plating on BMS, day five; for Area (of cellular structures): cells plated on 1.8 mg/cm^2 gelled protein substrate, 5 d, mean ± SD, alveoli defined as > 20 × 10^3 um^2; for Alveolar formation on substrate: cells plated on equal milligram amounts of gelled substrate", "text": "Type II alveolar cells were isolated from 250-g Sprague Dawley rats (Hilltop Laboratory Animals, Inc.) according to the method of Rannels (Rannels and Rannels, 1988). Briefly, an initial cardiac perfusion with 0.9% saline was followed by instillation of the airways with 0.1% elastase (Calbiochem Corp., La Jolla, Calif.) in Joklik's modified minimal medium (JMEM) containing 0.05% BaSO4. Elastase was inactivated by instillation of JMEM containing soybean trypsin inhibitor (0.08%; Sigma Chemical Co., St. Louis, Mo.), DNase (0.08%. Sigman Chemical Co.), and 50% newborn calf serum (GIBCO BRL, Gaithersburg, Md.). Lung tissue was minced, vortexed, and filtered through 160-μm nylon mesh (Tetko, Elmsford, N.Y.). Released cells were centrifuged for 10 min at 500 g, resuspended in JMEM containing 0.08% DNAse, and layered on a Percoll (Pharmacia Fine Chemicals) discontinuous density gradient. After centrifugation for 20 min (4° C.) , cells were collected at the 1.04/1.08 interface, washed in JMEM, brought up in DME containing 10% fetal bovine serum (FBS) (GIBCO BRL), and incubated for 30 min (37° C.) in 75-cm^2 tissue culture flasks to eliminate contaminating macrophage cells which rapidly adhere to the plastic surface. The resultant type II alveolar cell preparations were 95% viable as determined by trypan blue exclusion; purity was 93% as assessed by the presence of lamellar bodies visible with Hoffman optics at a magnification of 40 and by tannic acid staining. Analysis of total cellular DNA/well on each day of an experiment was performed in triplicate on trypsin/disease released cells using a DNA fluorometry assay (Labarca and Paigen, 1980).\nFreshly isolated type II alveolar cells were plated in 96-well plates at 20×10^3 cells/well on 500 μg/well (1.8 mg/cm^2) of gelled BMS of collagen I. Cells were cultured over 5 d with on media change performed on day three. Alveolar formation was analyzed at 24-h intervals over 5 d from photographic negatives (4×original magnification of central portion of each well) of triplicate wells. Images from negatives were transferred via video camera to an Image I imaging system (Universal Imaging Corp., West Chester, Pa.) and viewed on a color video monitor. The area of cellular structures was then determined and expressed as the mean±standard deviation. In some cases two size categories were distinguished: (a) single cells (200-300 μm^2) and (b) model alveoli (20×10^3 μm^2 or greater) with data expressed as percent of area occupied by each category.\n(§1) In alveolar inhibition studies, antibodies (50 μg/well) were incubated with gelled BMS (500 μg/well) in wells of 96-well plates for 60 min at 37° C. Unbound antibody was removed by three DME washes (200 μl/well) and then freshly isolated cells were added. Dose-response assays were performed on all antibodies. Laminin fragments and synthetic peptides (micromolar amount indicated on figures) were preincubated with freshly isolated type II alveolar cells in suspension for 30 min at 37° C. with gentle agitation every 5 min; cells together with fragment or peptide were then plated on BMS. Cell viability in the presence of each antibody, fragment, or synthetic peptide was accessed using the MTT (3-[4,5-dimethylthiazol-2-yl]-2,5-diphenyl tetrazolium bromide) assay (Chemicon International, Inc. Temecula, Calif.)."}, "type II alveolar cells [2]": {"tested_on": "type II alveolar cells", "format": "cell-based, rat", "experimental": "as §1"}, "[3]": {"tested_on": "HT1080 human fibrosarcoma cells", "experiment": "Cell adhesion studies, HT1080 cells on coated plates (Example 1)", "format": "cell-based", "experimental": "(§2) Plates coated overnight (4° C.) with equimolar amounts of laminin, laminin fragment, or synthetic peptide were blocked with 1% BSA (Sigma Chemical Co.) for 4 h (4° C.) and cells were subsequently added (2×10^4 /well) in serum-free media and incubated for 60 min (37° C.) according to the method of Aumailey and Timpl (1986). Inhibition studies were carried out by preincubating cells for 30 min (37°; gentle agitation every 5 min) with equimolar amounts of soluble fragment or peptide. Cells, together with soluble inhibitor, were then added to the coated plates. After a 60-min (37° C.) incubation, plates were washed twice with PBX, fixed with 1% glutarldehyde (Electron Microscopy Service Laboratories, Westmount, N.J.), PBS, washed, stained with 0.1% crystal violet (Serra Biochemicals, Hauppauge, N.Y.), washed twice with distilled water, solubilized in 0.5% Triton X-100 (Sigma Chemical Co.), and read on an ELISA plate reader (Molecular Devices Corp., Menio Park, Calif.) equipped with a 595-nm filter."}, "type II alveolar cells [4]": {"tested_on": "type II alveolar cells", "experiment": "Cell adhesion studies, type II alveolar cells on coated plates (Example 1)", "format": "cell-based, rat", "conditions": "coating 100 μM", "experimental": "as §2"}}, "note": "Peptide text beside a SMILES is read from it."}
{"molecule": "AASIKVAVSADR [peptide from mouse laminin A chain, antigen of ab-A[IK], reference compound]", "values": [{"measurement": "Area", "setting": "type II alveolar cells [1]", "result": "98 ± 22", "unit": "μm^2 × 10^3"}, {"measurement": "Inhibition of alveolar formation by soluble laminin fragment or peptide", "setting": "type II alveolar cells [1]", "result": "no effect on alveolar formation"}]}
{"molecule": "Collagen IV: Mouse collagen IV", "values": [{"measurement": "Area (of cellular structures)", "setting": "type II alveolar cells [1]", "result": "0.4 ± 0.2", "unit": "μm^2 × 10^3"}]}
{"molecule": "AASVVIAKSADR [scrambled IKVAV control peptide, reference compound]", "values": [{"measurement": "Area", "setting": "type II alveolar cells [1]", "result": "100 ± 18", "unit": "μm^2 × 10^3"}, {"measurement": "Inhibition of alveolar formation by soluble laminin fragment or peptide", "setting": "type II alveolar cells [1]", "result": "no effect on alveolar formation"}]}
{"molecule": "CC[C@H](C)[C@H](NC(=O)[C@H](CO)NC(=O)[C@H](Cc1c[nH]cn1)NC(=O)[C@H](Cc1c[nH]c2ccccc12)NC(=O)[C@H](CCCNC(=N)N)NC(=O)[C@H](CC(N)=O)NC(=O)[C@H](CC(N)=O)NC(=O)[C@H](CC(N)=O)NC(=O)[C@@H](NC(=O)[C@@H](N)CO)[C@@H](C)CC)C(=O)N[C@@H](Cc1ccc(O)cc1)C(=O)N[C@H](C(=O)N[C@H](C(=O)N[C@@H](CCCNC(=N)N)C(=O)N[C@@H](Cc1ccccc1)C(=O)NCC(=O)N[C@@H](CC(N)=O)C(=O)N[C@@H](CCSC)C(=O)NCC(=O)N[C@@H](CO)C(=O)O)[C@@H](C)O)[C@@H](C)CC", "note": "[SN-peptide] (H-SINNNRWHSIYITRFGNMGS-OH)", "values": [{"measurement": "IC50", "setting": "type II alveolar cells [1]", "result": 50, "unit": "µM"}, {"measurement": "Cell viability", "setting": "type II alveolar cells [2]", "result": "97±1", "unit": "%"}]}
{"molecule": "RGDS [functionally identical to RGDN, P1 fragment cell adhesion site, reference compound]", "values": [{"measurement": "Area", "setting": "type II alveolar cells [1]", "result": "105 ± 24", "unit": "μm^2 × 10^3"}, {"measurement": "Inhibition of alveolar formation by soluble laminin fragment or peptide", "setting": "type II alveolar cells [1]", "result": "no effect on alveolar formation"}]}
{"molecule": "O=C(O)CN(CCN(CC(=O)O)CC(=O)O)CC(=O)O", "note": "[EDTA, reference compound]", "values": [{"measurement": "Inhibition of HT1080 cell adhesion to SN-peptide", "setting": "[3]; cells preincubated with inhibitor, coating and inhibitor 100 μM, EDTA 2 mM", "result": "inhibited"}]}
{"molecule": "collagen I: Rat tail collagen I, negative control substrate", "values": [{"measurement": "Alveolar formation on substrate", "setting": "type II alveolar cells [1]", "result": "completely ineffective"}]}
{"molecule": "KQNCLSSRASFRGCVRNLRLSR [reference compound]", "values": [{"measurement": "Area", "setting": "type II alveolar cells [1]", "result": "110 ± 19", "unit": "μm^2 × 10^3"}, {"measurement": "Inhibition of alveolar formation by soluble laminin fragment or peptide", "setting": "type II alveolar cells [1]", "result": "no effect on alveolar formation"}]}
{"molecule": "CC[C@H](C)[C@H](NC(=O)[C@@H](N)CO)C(=O)N[C@@H](CC(N)=O)C(=O)N[C@@H](CC(N)=O)C(=O)N[C@@H](CC(N)=O)C(=O)N[C@@H](CCCNC(=N)N)C(=O)O", "note": "[SINNNR] (H-SINNNR-OH)", "values": [{"measurement": "IC50", "setting": "type II alveolar cells [1]", "result": 68, "unit": "µM"}]}
{"molecule": "FGNMGS [carboxy-terminal 6-mer of SN-peptide from trypsin digestion]", "values": [{"measurement": "Inhibition of alveolar formation by soluble laminin fragment or peptide", "setting": "type II alveolar cells [1]", "result": "minimal"}]}
{"molecule": "Laminin: Mouse laminin, large cross-shaped cell adhesive heterotrimer", "values": [{"measurement": "Area (of cellular structures)", "setting": "type II alveolar cells [1]", "result": "35 ± 3", "unit": "μm^2 × 10^3"}, {"measurement": "Alveolar formation on substrate", "setting": "type II alveolar cells [1]", "result": "alveoli formed only on laminin"}, {"measurement": "Adhesion of type II alveolar cells to coated substrate", "setting": "type II alveolar cells [4]", "result": "Adhesion"}, {"measurement": "Percent cell attachment", "setting": "[3]; HT1080 cells, substrate coated at 35 μM, mean ± SD", "result": "80 ± 0.02", "unit": "%"}]}
{"molecule": "WHSIYITR [middle 8-mer of SN-peptide from trypsin digestion]", "values": [{"measurement": "Inhibition of alveolar formation by soluble laminin fragment or peptide", "setting": "type II alveolar cells [1]", "result": "partial"}]}
{"molecule": "Entactin: Mouse entactin purchased from Upstate Biotechnology (protein, UniProt P10493 29-1245, looked up) Nidogen-1: LNRQELFPFGPGQGDLELEAGDDVVSPSLELIGELSFYDRTDITSVYVTTNGIIAMSEPPATEYHPGTFPPSFGSVAPFLADLDTTDGLGNVYYREDLSPFIIQMAAEYVQRGFPEVSFQPTSVVVVTWESVAPYGGPSSSPAEEGKRNTFQAVLASSNSSSYAIFLYPEDGLQFFTTFSKKDESQVPAVVGFSKGLVGFLWKSNGAYNIFANDRESIENLAKSSNAGHQGVWVFEIGSPATAKGVVSADVNLDLDDDGADYEDEDYDLVTSHLGLEDVATPSPSHSPRRGYPDPHNVPRILSPGYEATERPRGVPTERTRSFQLPAERFPQHHPQVIDVDEVEETGVVFSYNTGSQQTCANNRHQCSVHAECRDYATGFCCRCVANYTGNGRQCVAEGSPQRVNGKVKGRIFVGSSQVPVVFENTDLHSYVVMNHGRSYTAISTIPETVGYSLLPLAPIGGIIGWMFAVEQDGFKNGFSITGGEFTRQAEVTFLGHPGKLVLKQQFSGIDEHGHLTISTELEGRVPQIPYGASVHIEPYTELYHYSSSVITSSSTREYTVMEPDQDGAAPSHTHIYQWRQTITFQECAHDDARPALPSTQQLSVDSVFVLYNKEERILRYALSNSIGPVRDGSPDALQNPCYIGTHGCDSNAACRPGPGTQFTCECSIGFRGDGQTCYDIDECSEQPSRCGNHAVCNNLPGTFRCECVEGYHFSDRGTCVAAEDQRPINYCETGLHNCDIPQRAQCIYMGGSSYTCSCLPGFSGDGRACRDVDECQHSRCHPDAFCYNTPGSFTCQCKPGYQGDGFRCMPGEVSKTRCQLEREHILGAAGGADAQRPTLQGMFVPQCDEYGHYVPTQCHHSTGYCWCVDRDGRELEGSRTPPGMRPPCLSTVAPPIHQGPVVPTAVIPLPPGTHLLFAQTGKIERLPLERNTMKKTEAKAFLHIPAKVIIGLAFDCVDKVVYWTDISEPSIGRASLHGGEPTTIIRQDLGSPEGIALDHLGRTIFWTDSQLDRIEVAKMDGTQRRVLFDTGLVNPRGIVTDPVRGNLYWTDWNRDNPKIETSHMDGTNRRILAQDNLGLPNGLTFDAFSSQLCWVDAGTHRAECLNPAQPGRRKVLEGLQYPFAVTSYGKNLYYTDWKTNSVIAMDLAISKEMDTFHPHKQTRLYGITIALSQCPQGHNYCSVNNGGCTHLCLPTPGSRTCRCPDNTLGVDCIERK", "values": [{"measurement": "Area (of cellular structures)", "setting": "type II alveolar cells [1]", "result": "1 ± 0.5", "unit": "μm^2 × 10^3"}]}
